In patent EP1707197A1 (TEVA PHARMACEUTICAL INDUSTRIES LTD., priority 2005, dated 2006):

Experiment: small volume in vitro release test in 50 ml 0.1N HCl
Assay type: physicochemical
Conditions: 37° C, 150 rpm
Protocol: The formulations were tested for their small volume in vitro release characteristics in 50 ml 0.1N HCl at 37° C and 150 rpm using the following procedure:
• a. Automated Dissolution System comprising: • Hanson SR8 Plus Test Station • Hanson Auto Plus Maximiser System Controller • Hanson Auto Plus MultiFill Fraction Collector • b. HPLC System comprising: • pump - Merck Hitachi L-7100 • autoinjector - Merck Hitachi L-7200 • column oven - Merck Hitachi L-7300 • detector - Merck Hitachi L-7400 • interface and integration software - Merck Hitachi D-7000
Place one weighed capsule in each vessel containing 0.1N HCl and immediately operate the apparatus for 30 min. Unless otherwise specified, 3 ml samples are withdrawn from each vessel and immediately filtered through PTFE membranes at 15 and 30 min.
The small volume was chosen as a model of the conditions in a fasted stomach.

CC(C)OC(=O)C(C)(C)Oc1ccc(C(=O)c2ccc(Cl)cc2)cc1 [Micronized Fenofibrate, 2-[4-(4-chlorobenzoyl)phenoxy]-2-methyl-propanoic acid, 1-methylethyl ester]
% dissolved 15 min (15 min): 0%
% dissolved 30 min (30 min): 0%
